The nature of the series: Oral bioavailability in rat. Conditions: in vivo. The format is ADME, organism-based.
`Cc1cc(C)c(C(C)(C)CC(=O)OCC(CO)OCn2cnc3c(O)nc(N)nc32)c(OCc2ccccc2)c1` (stereo not drawn) registered a bioavailability of 0%.

On to `CC(=O)Oc1cc(C)cc(C)c1C(C)(C)CC(=O)OCC(CO)OCn1cnc2c(O)nc(N)nc21` (stereo not drawn), for which the bioavailability is 15.6%.

`Nc1nc(O)c2ncn(COC(CO)CO)c2n1` [GANCICLOVIR]: the bioavailability was 3.6%.

The term bioavailability denotes the share of a dose that reaches the circulation, judged against a reference dose that is usually intravenous. Low values mean little systemic uptake, high ones much systemic uptake.

For the origin of these results see ChEMBL document CHEMBL1151543, “Application of the trimethyl lock1 to Ganciclovir, a pro-prodrug with increased oral bioavailability” (Bioorg Med Chem Lett, 1996).
